Test results from patent US20100305047A1, “CYCLOSPORIN DERIVATIVES FOR ENHANCING THE GROWTH OF HAIR” (ALLERGAN, INC., priority 2009, published 2010).
Starred links: 1 amine or outer side, 2 acyl side, 3 side chain; linkers in the order of their positions; H or OH if unused. Non-standard residues stand in square brackets, D forms with d. Residues, ends and D or L forms follow the SMILES beside them. ξ: configuration not given here. ξNMeBmt = C/C=C/C[C@@H](C)[C@@H](O)C(NC)C(=O)O; X1 = CN(C(SCCNC(=N)N)C(=O)[*:2])[*:1]; NMeL = CN[C@@H](CC(C)C)C(=O)O; dNMeL = CN[C@H](CC(C)C)C(=O)O; NMeV = CN[C@H](C(=O)O)C(C)C; ξNMeL = CNC(CC(C)C)C(=O)O; dAbu = CC[C@@H](N)C(=O)O

Test system: lashes and hair around the eyes of patients
Experiment: In vivo treatment: appearance of lashes and hair around the eyes of patients treated in only one eye
Set-up: species or system human
Details: glaucoma patients, one drop daily to one eye
Procedure: A study is initiated to systematically evaluate the appearance of lashes and hair around the eyes of patients who are administering 3-[(2-Guanidyl)-ethylthio]-cyclosporin A (the cyclosporine A derivative of Example A, above) in only one eye. The study involves 10 subjects, 5 male, 5 female, average age 70 years, (ranging from 50-94 years). All patients have glaucoma. Each subject is treated daily by the topical application of one drop of the composition of Example 3, below, to provide 3-[(2-Guanidyl)-ethylthio]-cyclosporin A at a dosage of 1.5 µg/ml/eye/day, to the region of one eye by instilling the drop onto the surface of the eye. The region of the fellow control eye is not treated with 3-[(2-Guanidyl)-ethylthio]-cyclosporin A and serves as a control. The mean duration of exposure to 3-[(2-Guanidyl)-ethylthio]-cyclosporin A prior to assessing the parameter of lash growth between the control and study eye is 129 days (range 90-254 days). Observations are made under high magnification at the slit lamp biomicroscope. Documentation of differences between the control and treatment areas is accomplished using a camera specially adapted for use with the slit lamp biomicroscope.

[1] = 1.5 µg/ml/eye/day, mean exposure 129 days, vs untreated fellow eye, slit lamp biomicroscope

## C/C=C/C[C@@H](C)[C@@H](O)C1C(=O)N[C@H](CC)C(=O)N(C)C(SCCNC(=N)N)C(=O)N(C)[C@@H](CC(C)C)C(=O)N[C@H](C(C)C)C(=O)N(C)C(CC(C)C)C(=O)N[C@H](C)C(=O)N[C@@H](C)C(=O)N(C)[C@H](CC(C)C)C(=O)N(C)[C@H](CC(C)C)C(=O)N(C)[C@@H](C(C)C)C(=O)N1C (stereo partly shown) [3-[(2-Guanidyl)-ethylthio]-cyclosporin A] (cyclo(A[dNMeL][dNMeL][NMeV][ξNMeBmt][dAbu][X1][NMeL][dV][ξNMeL][dA]))
1.5 µg/ml/eye/day, mean exposure 129 days, vs untreated fellow eye, areas below and lateral to the lower lid
  Increased growth of vellus hair on lids: vellus hairs are increased in number, appear more robust and are much longer and thicker in treated than in control eyes
[1]
  Length of lashes: Increased length of eyelashes is regularly observed
  Number of lashes: Increased numbers of lashes are observed in the treated eye of each patient
lash-like hairs above the lash line and in the medial and lateral canthal areas
  Perpendicular angulation of hairs: the hairs are much longer, thicker and heavier. They also leave the surface of the skin at a more acute angle
